The values below come from US12479843B2, “Spiro ring-containing quinazoline compounds” (WIGEN BIOMEDICINE TECHNOLOGY (SHANGHAI) CO., LTD., priority 2019, dated 2025).

Each structure is given as a SMILES string.

Assay [1] has as its system pERK level in H358 cells. The assay is described as follows: pERK and ERK protein content assay in H358 cells (ELISA). The assay is classed as cell-based. As to conditions: Homo sapiens, NCI-H358, compound 1 μM, 24 h, pERK/ERK ratio compared with DMSO group, read-out: Inhibition rate (%) of pERK level. Here is the method: H358 cells were seeded in a 24-well plate. After one day of growth, a test compound (at a concentration of 1 μM) was added. After 24 h of action of the compound, the cells were lysed, and the cell lysate was transferred to a 96-well ELISA plate. The levels of pERK and ERK in the lysate were measured using an ELISA kit (abcam 176660). The ratio of pERK to ERK was calculated and compared with that of the DMSO group, and the percentage of inhibition of pERK activity by the compound was calculated.
Background: In an ELISA, binding on a coated surface is turned into a signal by an enzyme label.

Assay [2] deals with H358 cells. The assay is described as follows: Antiproliferative activity against H358 cells (Cell Titer Glow, ultra-low attachment plate). The conditions noted are these: Homo sapiens, NCI-H358, 72 h, 96-well ultra-low attachment plate, three days after addition of compound, Cell Titer Glow. The assay is classed as cell-based. Here is the method:
2500 H358 cells were seeded in a 96-well ultra-low attachment plate (corning, 7007). After one day of growth, a serially diluted compound (a maximum concentration of 5 μM, 5-fold dilution, a total of five doses) was added. Three days after the addition of the compound, Cell Titer Glow (Promega, G9681) was added to evaluate pellet growth, and the IC50 value was calculated.
For orientation: Cellular ATP, detected with luciferase, serves as a proxy for viable cell number.

For orientation: inhibition means the share of the control response that was lost under treatment. For orientation: IC50 means the concentration that inhibits the measured activity by half. For the compound `C=C(C(=O)N1CC2(CCN(c3nc(OC4CCN(CCOC)CC4)nc4c(OCC(F)(F)F)c(-c5c(C)ccc6[nH]ncc56)c(C5CC5)cc34)CC2)C1)c1cncnc1` [Compound 21], the inhibition at 1 µM in assay [1] was greater than 90%. In assay [2], this compound registered an IC50 of less than 300 nM.
`C=C(C(=O)N1CC2(CCN(c3nc(OC4CCN(CCOC)CC4)nc4c(OCC(F)(F)F)c(-c5c(C)ccc6[nH]ncc56)c(C5CC5)cc34)CC2)C1)n1ccnc1` [Compound 22]: the inhibition at 1 µM in assay [1] is 50 to 90%. In addition, the IC50 in assay [2] is 300 to 1000 nM.
As to `C=C(C(=O)N1CC2(CCN(c3nc(OC4CCN(CCOC)CC4)nc4c(OCC(F)(F)F)c(-c5c(C)ccc6[nH]ncc56)c(C5CC5)cc34)CC2)C1)n1cncn1` [Compound 23], the inhibition at 1 µM in assay [1] was greater than 90%. Also, the IC50 in assay [2] is less than 300 nM.
For `C=C(C(=O)N1CC2(CCN(c3nc(OC4CCN(CCOC)CC4)nc4c(OCC(F)(F)F)c(-c5c(C)ccc6[nH]ncc56)c(C5CC5)cc34)CC2)C1)n1cccc1` [Compound 24], in assay [1], the inhibition at 1 µM fell in the range of 50 to 90%. This compound gave an IC50 in assay [2] of 300 to 1000 nM.
With `C=C(C(=O)N1CC2(CCN(c3nc(OC4CCN(CCOC)CC4)nc4c(OCC(F)(F)F)c(-c5c(C)ccc6[nH]ncc56)c(C5CC5)cc34)CC2)C1)n1ccnn1` [Compound 25], the inhibition at 1 µM in assay [1] was greater than 90%. For the same compound, the IC50 in assay [2] is less than 300 nM.
With `C=CC(=O)N1CC2(C1)CN(c1nc(OC3CCN(CCOC)CC3)nc3c(OCC(F)(F)F)c(-c4c(C)ccc5[nH]ncc45)c(C4CC4)cc13)C2` [Compound 26], in assay [1], the inhibition at 1 µM lay within 50 to 90%. Moreover, the IC50 in assay [2] was 300 to 1000 nM.
Take `C=CC(=O)N1CCC2(CC1)CN(c1nc(OC3CCN(CCOC)CC3)nc3c(OCC(F)(F)F)c(-c4c(C)ccc5[nH]ncc45)c(C4CC4)cc13)C2` [Compound 27]: the inhibition at 1 µM in assay [1] lay within 50 to 90%. Also, the IC50 in assay [2] fell in the range of 300 to 1000 nM.
With `C=C(F)C(=O)N1CC2(CCN(c3nc(OC4CCN(CCOC)CC4)nc4c(OCC(F)(F)F)c(-c5c(F)ccc6cn[nH]c56)c(C5CC5)cc34)CC2)C1` [Compound 34], in assay [1], the inhibition at 1 µM is greater than 90%. In assay [2], this compound gave an IC50 of less than 300 nM.
For `C=CC(=O)N1CC2(CCN(c3nc(OC4CCN(CCOC)CC4)nc4c(OCC(F)(F)F)c(-c5c(F)ccc6[nH]cnc56)c(C5CC5)cc34)CC2)C1` [Compound 37], in assay [1], the inhibition at 1 µM was 50 to 90%. The compound also yielded an IC50 in assay [2] of 300 to 1000 nM.
Take `C=C(F)C(=O)N1CC2(CCN(c3nc(OC4CCN(CCOC)CC4)nc4c(OCC(F)(F)F)c(-c5c(F)ccc6[nH]cnc56)c(C5CC5)cc34)CC2)C1` [Compound 38]: the inhibition at 1 µM in assay [1] is greater than 90%. Besides, the IC50 in assay [2] lay within 300 to 1000 nM.
As for `C=CC(=O)N1CC2(CCN(c3nc(OC4CCN(CCOC)CC4)nc4c(OCC(F)(F)F)c(-c5c(C)ccc6[nH]nnc56)c(C5CC5)cc34)CC2)C1` [Compound 39], in assay [1], the inhibition at 1 µM is greater than 90%. The compound further showed an IC50 in assay [2] of less than 300 nM.
Turning to `C=C(F)C(=O)N1CC2(CCN(c3nc(OC4CCN(CCOC)CC4)nc4c(OCC(F)(F)F)c(-c5c(C)ccc6[nH]nnc56)c(C5CC5)cc34)CC2)C1` [Compound 40], the inhibition at 1 µM in assay [1] was greater than 90%. Also, the IC50 in assay [2] was less than 300 nM.
On the same counts, the results for `C=CC(=O)N1CC2(CCN(c3nc(OC4CCN(CCOC)CC4)nc4c(OCC(F)(F)F)c(-c5c(C)ccc6cc[nH]c(=O)c56)c(C5CC5)cc34)CC2)C1` [Compound 41] are greater than 90% and less than 300 nM.
With `C=C(F)C(=O)N1CC2(CCN(c3nc(OC4CCN(CCOC)CC4)nc4c(OCC(F)(F)F)c(-c5c(C)ccc6cc[nH]c(=O)c56)c(C5CC5)cc34)CC2)C1` [Compound 42], the inhibition at 1 µM in assay [1] is greater than 90%. In addition, in assay [2], the IC50 lay within 300 to 1000 nM.
For `C=CC(=O)N1CC2(CCN(c3nc(OC4CCN(CCOC)CC4)nc4c(OCC(F)(F)F)c(-c5c(C)ccc6nc[nH]c(=O)c56)c(C5CC5)cc34)CC2)C1` [Compound 43], in assay [1], the inhibition at 1 µM is greater than 90%. This compound came in with an IC50 in assay [2] of less than 300 nM.
In the case of `C=C(F)C(=O)N1CC2(CCN(c3nc(OC4CCN(CCOC)CC4)nc4c(OCC(F)(F)F)c(-c5c(C)ccc6nc[nH]c(=O)c56)c(C5CC5)cc34)CC2)C1` [Compound 44], the inhibition at 1 µM in assay [1] was greater than 90%. For the same compound, the half-inhibitory concentration (IC50) in assay [2] is less than 300 nM.
`C=CC(=O)N1CC2(CCN(c3nc(OC4CCN(CCOC)CC4)nc4c(OCC(F)(F)F)c(-c5c(O)cccc5F)c(C5CC5)cc34)CC2)C1` [Compound 45]: the inhibition at 1 µM in assay [1] is greater than 90%. In addition, the IC50 in assay [2] is less than 300 nM.
As for `C=C(F)C(=O)N1CC2(CCN(c3nc(OC4CCN(CCOC)CC4)nc4c(OCC(F)(F)F)c(-c5c(O)cccc5F)c(C5CC5)cc34)CC2)C1` [Compound 46], in assay [1], the inhibition at 1 µM was greater than 90%. In assay [2], this compound returned an IC50 of less than 300 nM.
On the same counts, the results for `C=CC(=O)N1CC2(CCN(c3nc(OC4CCN(CCOC)CC4)nc4c(OCC(F)(F)F)c(-c5c(N)cccc5F)c(C5CC5)cc34)CC2)C1` [Compound 47] are greater than 90% and less than 300 nM.
For the compound `C=C(F)C(=O)N1CC2(CCN(c3nc(OC4CCN(CCOC)CC4)nc4c(OCC(F)(F)F)c(-c5c(N)cccc5F)c(C5CC5)cc34)CC2)C1` [Compound 48], the inhibition at 1 µM in assay [1] was greater than 90%. This compound yielded an IC50 in assay [2] of 300 to 1000 nM.
Consider `C=CC(=O)N1CC2(CCN(c3nc(OC4CCN(CCOC)CC4)nc4c(OCC(F)(F)F)c(-c5c(N)c(Cl)cc(Cl)c5F)c(C5CC5)cc34)CC2)C1` [Compound 49], for which the inhibition at 1 µM in assay [1] was greater than 90%. Moreover, the IC50 in assay [2] is less than 300 nM.
As to `C=C(F)C(=O)N1CC2(CCN(c3nc(OC4CCN(CCOC)CC4)nc4c(OCC(F)(F)F)c(-c5c(N)c(Cl)cc(Cl)c5F)c(C5CC5)cc34)CC2)C1` [Compound 50], the inhibition at 1 µM in assay [1] was greater than 90%. This compound came in with an IC50 in assay [2] of less than 300 nM.
With `C=CC(=O)N1CC2(CCN(c3nc(OC4CCN(CCOC)CC4)nc4c(OCC(F)(F)F)c(-c5ccccc5F)c(C5CC5)cc34)CC2)C1` [Compound 51], the inhibition at 1 µM in assay [1] is greater than 90%. For the same compound, the IC50 in assay [2] is less than 300 nM.
On the same counts, the results for `C=C(F)C(=O)N1CC2(CCN(c3nc(OC4CCN(CCOC)CC4)nc4c(OCC(F)(F)F)c(-c5ccccc5F)c(C5CC5)cc34)CC2)C1` [Compound 52] are greater than 90% and less than 300 nM.
Regarding `C=CC(=O)N1CC2(CCN(c3nc(OC4CCN(CCOC)CC4)nc4c(OCC(F)(F)F)c(-c5c(F)cccc5F)c(C5CC5)cc34)CC2)C1` [Compound 53], the inhibition at 1 µM in assay [1] was greater than 90%. The IC50 in assay [2] was less than 300 nM.
For the compound `C=C(F)C(=O)N1CC2(CCN(c3nc(OC4CCN(CCOC)CC4)nc4c(OCC(F)(F)F)c(-c5c(F)cccc5F)c(C5CC5)cc34)CC2)C1` [Compound 54], the inhibition at 1 µM in assay [1] was greater than 90%. For the same compound, in assay [2], the IC50 is less than 300 nM.
The matching figures for `C=CC(=O)N1CC2(CCN(c3nc(OC4CCN(CCOC)CC4)nc4c(OCC(F)(F)F)c(-c5ccccc5C(F)(F)F)c(C5CC5)cc34)CC2)C1` [Compound 55]: greater than 90% and less than 300 nM.
In the case of `C=CC(=O)N1CC2(CCN(c3nc(OC4CCN(CCOC)CC4)nc4c(OCC(F)(F)F)c(-c5ccc(F)cc5F)c(C5CC5)cc34)CC2)C1` [Compound 56], the inhibition at 1 µM in assay [1] is greater than 90%. The compound further came in with a 50% inhibitory concentration (IC50) in assay [2] of less than 300 nM.
With `C=CC(=O)N1CC2(CCN(c3nc(OC4CCN(CCOC)CC4)nc4c(OCC(F)(F)F)c(-c5cc(O)ccc5F)c(C5CC5)cc34)CC2)C1` [Compound 57], the inhibition at 1 µM in assay [1] was greater than 90%. The compound further gave an IC50 in assay [2] of less than 300 nM.
